Test results published in PubChem BioAssay (NCI).
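Five concentrations, 48 hours, 96-well plates. At the TGI there is no net growth.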

What was measured:
Experiment in all cases: NCI-60 cell line screen, 48 h
[1] = system: COLO 205 colon
[2] = system: CCRF-CEM leukemia
[3] = system: SF-539 CNS
[4] = system: ACHN renal
[5] = system: MOLT-4 leukemia
[6] = system: A498 renal
[7] = system: NCI-H226 lung
[8] = system: RXF 393 renal
[9] = system: 786-0 renal
[10] = system: DMS 114 small cell lung
[11] = system: OVCAR-8 ovarian
[12] = system: HCT-15 colon
[13] = system: MALME-3M melanoma
[14] = system: SF-268 CNS
[15] = system: HOP-92 NSCLC
[16] = system: SF-295 CNS
[17] = system: A549 NSCLC
[18] = system: LXFL 529 NSCLC
[19] = system: HT29 colon
[20] = system: EKVX NSCLC
[21] = system: SNB-78 CNS
[22] = system: U251 CNS
[23] = system: UACC-257 melanoma
[24] = system: TK-10 renal
[25] = system: SK-MEL-2 melanoma
[26] = system: HCT-116 colon
[27] = system: SW-620 colon
[28] = system: CAKI-1 renal
[29] = system: UACC-62 melanoma
[30] = system: KM20L2 colon
[31] = system: SN12C renal
[32] = system: DLD-1 colon
[33] = system: NCI-H460 lung
[34] = system: NCI-H522 lung
[35] = system: SNB-19 CNS
[36] = system: XF 498 CNS
[37] = system: HCC-2998 colon
[38] = system: OVCAR-3 ovarian
[39] = system: LOX IMVI melanoma
[40] = system: DMS 273 small cell lung
[41] = system: SK-MEL-28 melanoma
[42] = system: SK-OV-3 ovarian
[43] = system: OVCAR-5 ovarian
[44] = system: IGROV1 ovarian
[45] = system: SK-MEL-5 melanoma
[46] = system: SNB-75 CNS
[47] = system: M19-MEL melanoma
[48] = system: MDA-MB-435
[49] = system: NCI/ADR-RES ovarian
[50] = system: M14 melanoma
[51] = system: HOP-62 NSCLC
[52] = system: UO-31 renal
[53] = system: K-562 leukemia
[54] = system: BT-549 breast
[55] = system: HS 578T breast
[56] = system: T-47D breast
[57] = system: HOP-18 NSCLC
[58] = system: MCF7 breast
[59] = system: DU-145 prostate
[60] = system: SR leukemia
[61] = system: RXF-631 renal
[62] = system: KM12 colon
[63] = system: PC-3 prostate
[64] = system: MDA-MB-231 breast
[65] = system: HL-60(TB) leukemia
[66] = system: RPMI-8226 leukemia
[67] = system: MDA-N
[68] = system: OVCAR-4 ovarian
[69] = system: NCI-H23 lung

Cc1c(C(=O)/C=C/c2ccccc2O)c(=O)n(-c2ccccc2)n1C
TGI [1]: 70.8 µM
TGI [2]: 86.9 µM
TGI [3]: 55.5 µM
TGI [4]: 45.2 µM
TGI [5]: 63.2 µM
TGI [6]: 90 µM
TGI [7]: 64.6 µM
TGI [8]: 50.8 µM
TGI [9]: 70 µM
TGI [10]: > 100 µM
TGI [11]: 40.7 µM
TGI [12]: 60.5 µM
TGI [13]: 70.7 µM
TGI [14]: > 100 µM
TGI [15]: 64.6 µM
TGI [16]: 54.9 µM
TGI [17]: > 100 µM
TGI [18]: 37.5 µM
TGI [19]: > 100 µM
TGI [20]: > 100 µM
TGI [21]: > 100 µM
TGI [22]: 35.9 µM
TGI [23]: 89.7 µM
TGI [24]: > 100 µM
TGI [25]: 38.4 µM
TGI [26]: 34.6 µM
TGI [27]: 35.5 µM
TGI [28]: 73.8 µM
TGI [29]: > 100 µM
TGI [30]: > 100 µM
TGI [31]: 52.6 µM
TGI [32]: 27.9 µM
TGI [33]: 53.3 µM
TGI [34]: 47.5 µM
TGI [35]: > 100 µM
TGI [36]: 46.3 µM
TGI [37]: 29.5 µM
TGI [38]: > 100 µM
TGI [39]: 45.9 µM
TGI [40]: > 100 µM
TGI [41]: > 100 µM
TGI [42]: > 100 µM
TGI [43]: > 100 µM
TGI [44]: > 100 µM
TGI [45]: 28.6 µM
TGI [46]: > 100 µM
TGI [47]: 74.6 µM

O=C1C=CC(=O)c2cc(Sc3ccccc3)c(=O)ccc21
TGI [1]: 24.9 µM
TGI [48]: 71 µM
TGI [2]: 9.43 µM
TGI [3]: 37 µM
TGI [4]: 23.3 µM
TGI [5]: 16 µM
TGI [6]: 31.4 µM
TGI [7]: 42.9 µM
TGI [8]: 25 µM
TGI [9]: 31.9 µM
TGI [10]: 38.5 µM
TGI [11]: 33.9 µM
TGI [49]: 42.1 µM
TGI [12]: 33.1 µM
TGI [13]: 36.4 µM
TGI [14]: 44.4 µM
TGI [15]: > 52.7 µM
TGI [50]: 41.3 µM
TGI [16]: 27.6 µM
TGI [17]: 39.5 µM
TGI [18]: 20.3 µM
TGI [19]: 41.6 µM
TGI [51]: 47.3 µM
TGI [20]: 33.2 µM
TGI [52]: 30.5 µM
TGI [53]: 8.75 µM
TGI [21]: 42.6 µM
TGI [22]: 38.5 µM
TGI [23]: 33.6 µM
TGI [54]: 40 µM
TGI [24]: 32.2 µM
TGI [55]: 64.8 µM
TGI [25]: 28.7 µM
TGI [56]: 12.5 µM
TGI [26]: 42.6 µM
TGI [27]: 11.7 µM
TGI [29]: 30.4 µM
TGI [30]: 38 µM
TGI [57]: 31.8 µM
TGI [31]: 33.9 µM
TGI [32]: 39 µM
TGI [33]: 47.6 µM
TGI [58]: 23.9 µM
TGI [34]: 5.96 µM
TGI [35]: 38.1 µM
TGI [59]: 31.5 µM
TGI [37]: 35.3 µM
TGI [38]: 43.2 µM
TGI [60]: 5.96 µM
TGI [61]: 43.4 µM
TGI [62]: 34.4 µM
TGI [63]: 33.2 µM
TGI [39]: 27.7 µM
TGI [40]: 35.1 µM
TGI [41]: 35.1 µM
TGI [64]: 35.4 µM
TGI [42]: 54.9 µM
TGI [43]: 36.3 µM
TGI [65]: 1.79 µM
TGI [44]: 35 µM
TGI [66]: 14.9 µM
TGI [45]: 31.5 µM
TGI [46]: 31.2 µM
TGI [67]: 33.4 µM
TGI [68]: 23.2 µM
TGI [47]: 35.3 µM
TGI [69]: 37 µM
